In brackets after ≈: the same amount, converted by molar mass.
How the values were obtained:
Experiment in all cases: in vitro antibacterial activity (MIC), agar dilution
Assay type in all cases: cell-based
[1] = system: Candida albicans CCH 442; settings: organism code TT; BHI agar, 35-37° C., 20 to 24 hours; unit assumed
Method: (§1) Representative compounds of the present invention were assayed in vitro for antibacterial activity as follows: Twelve petri dishes containing successive aqueous dilutions of the test compound mixed with 10 mL of sterilized Brain Heart Infusion (BHI) agar (Difco 0418-01-5) were prepared. Each plate was inoculated with 1:100 (or 1:10 for slow-growing strains, such as Micrococcus and Streptococcus) dilutions of up to 32 different microorganisms, using a Steers replicator block. […] In addition, a control plate, using BHI agar containing no test compound, was prepared and incubated at the beginning and end of each test.
(§2) An additional plate containing a compound having known susceptibility patterns for the organisms being tested and belonging to the same antibiotic class as the test compound was also prepared and incubated as a further control, as well as to provide test-to-test comparability.
(§3) After incubation, each plate was visually inspected. The minimum inhibitory concentration (MIC) was defined as the lowest concentration of drug yielding no growth, a slight haze, or sparsely isolated colonies on the inoculum spot as compared to the growth control.

[2] = system: Enterococcus faecium ATCC 8043; settings: organism code II; BHI agar, 35-37° C., 20 to 24 hours; unit assumed
Method: as §1, §2, §3

[3] = system: Escherichia coli DC-2; settings: organism code SS; BHI agar, 35-37° C., 20 to 24 hours; unit assumed
Method: as §1, §2, §3

[4] = system: Escherichia coli JUHL; settings: organism code QQ; BHI agar, 35-37° C., 20 to 24 hours; unit assumed
Method: as §1, §2, §3

[5] = system: Escherichia coli SS; settings: organism code RR; BHI agar, 35-37° C., 20 to 24 hours; unit assumed
Method: as §1, §2, §3

[6] = system: Haemophilis Influenzae DILL AMP R; settings: organism code WW; BHI agar, 35-37° C., 20 to 24 hours; unit assumed
Method: as §1, §2, §3

[7] = system: Micrococcus luteus ATCC 4698; settings: organism code PP; BHI agar, 35-37° C., 20 to 24 hours; unit assumed
Method: as §1, §2, §3

[8] = system: Micrococcus luteus ATCC 9341; settings: organism code OO; BHI agar, 35-37° C., 20 to 24 hours; unit assumed
Method: as §1, §2, §3

[9] = system: Mycobacterium smegmatis ATCC 114; settings: organism code UU; BHI agar, 35-37° C., 20 to 24 hours; unit assumed
Method: as §1, §2, §3

[10] = system: Nocardia Asteroides ATCC9970; settings: organism code VV; BHI agar, 35-37° C., 20 to 24 hours; unit assumed
Method: as §1, §2, §3

[11] = system: Staphylococcus aureus 1775; settings: organism code GG; BHI agar, 35-37° C., 20 to 24 hours; unit assumed
Method: as §1, §2, §3

[12] = system: Staphylococcus aureus A-5278; settings: organism code CC; BHI agar, 35-37° C., 20 to 24 hours; unit assumed
Method: as §1, §2, §3

[13] = system: Staphylococcus aureus A5177; settings: organism code BB; BHI agar, 35-37° C., 20 to 24 hours; unit assumed
Method: as §1, §2, §3

[14] = system: Staphylococcus aureus ATCC 6538P; settings: organism code AA; BHI agar, 35-37° C., 20 to 24 hours; unit assumed
Method: as §1, §2, §3

[15] = system: Staphylococcus aureus CMX 553; settings: organism code FF; BHI agar, 35-37° C., 20 to 24 hours; unit assumed
Method: as §1, §2, §3

[16] = system: Staphylococcus aureus CMX 642A; settings: organism code DD; BHI agar, 35-37° C., 20 to 24 hours; unit assumed
Method: as §1, §2, §3

[17] = system: Staphylococcus aureus NCTC10649M; settings: organism code EE; BHI agar, 35-37° C., 20 to 24 hours; unit assumed
Method: as §1, §2, §3

[18] = system: Staphylococcus epidermidis 3519; settings: organism code HH; BHI agar, 35-37° C., 20 to 24 hours; unit assumed
Method: as §1, §2, §3

[19] = system: Streptococcus Pneumonia 5649; settings: organism code ZZA; BHI agar, 35-37° C., 20 to 24 hours; unit assumed
Method: as §1, §2, §3

[20] = system: Streptococcus Pneumonia 5979; settings: organism code ZZ; BHI agar, 35-37° C., 20 to 24 hours; unit assumed
Method: as §1, §2, §3

[21] = system: Streptococcus Pneumonia ATCC6303; settings: organism code XX; BHI agar, 35-37° C., 20 to 24 hours; unit assumed
Method: as §1, §2, §3

[22] = system: Streptococcus Pneumonia GYR 1171; settings: organism code YY; BHI agar, 35-37° C., 20 to 24 hours; unit assumed
Method: as §1, §2, §3

[23] = system: Streptococcus agalactiae CMX 508; settings: organism code KK; BHI agar, 35-37° C., 20 to 24 hours; unit assumed
Method: as §1, §2, §3

[24] = system: Streptococcus bovis A-5169; settings: organism code JJ; BHI agar, 35-37° C., 20 to 24 hours; unit assumed
Method: as §1, §2, §3

[25] = system: Streptococcus pyogenes 930; settings: organism code MM; BHI agar, 35-37° C., 20 to 24 hours; unit assumed
Method: as §1, §2, §3

[26] = system: Streptococcus pyogenes EES61; settings: organism code LL; BHI agar, 35-37° C., 20 to 24 hours; unit assumed
Method: as §1, §2, §3

[27] = system: Streptococcus pyogenes PIU 2548; settings: organism code NN; BHI agar, 35-37° C., 20 to 24 hours; unit assumed
Method: as §1, §2, §3

SMILES | MIC [1] [µg/mL] | MIC [2] [µg/mL] | MIC [3] [µg/mL] | MIC [4] [µg/mL] | MIC [5] [µg/mL] | MIC [6] [µg/mL] | MIC [7] [µg/mL] | MIC [8] [µg/mL] | MIC [9] [µg/mL] | MIC [10] [µg/mL] | MIC [12] [µg/mL] | MIC [13] [µg/mL] | MIC [14] [µg/mL] | MIC [15] [µg/mL] | MIC [16] [µg/mL] | MIC [17] [µg/mL] | MIC [18] [µg/mL] | MIC [19] [µg/mL] | MIC [20] [µg/mL] | MIC [21] [µg/mL] | further results
CC[C@H]1OC(=O)[C@H](C)C(=O)[C@H](C)[C@@H](O[C@@H]2O[C@H](C)C[C@H](N(C)C)[C@H]2O)[C@](C)(OCC#Cc2ccc(-c3nccn3C)s2)C[C@@H](C)C(=O)[C@H](C)[C@H]2NC(=O)O[C@@]21C [Example 32] | > 100 | 0.02 (≈ 0.025 µM) | > 100 | 50 (≈ 62.6 µM) | 0.2 (≈ 0.25 µM) | 2 (≈ 2.5 µM) | 0.05 (≈ 0.0626 µM) | 0.01 (≈ 0.0125 µM) | 1.56 (≈ 1.95 µM) | 0.01 (≈ 0.0125 µM) | > 100 | 0.05 (≈ 0.0626 µM) | 0.05 (≈ 0.0626 µM) | 0.05 (≈ 0.0626 µM) | 0.05 (≈ 0.0626 µM) | 0.1 (≈ 0.125 µM) | 0.1 (≈ 0.125 µM) | 0.25 (≈ 0.313 µM) | 0.25 (≈ 0.313 µM) | 0.03 (≈ 0.0375 µM) | MIC [11]: > 100 µg/mL; MIC [22]: 0.03 µg/mL (≈ 0.0375 µM); MIC [23]: 0.01 µg/mL (≈ 0.0125 µM); MIC [24]: ≤ 0.005 µg/mL; MIC [25]: 12.5 µg/mL (≈ 15.6 µM); MIC [26]: 0.01 µg/mL (≈ 0.0125 µM); MIC [27]: 0.39 µg/mL (≈ 0.488 µM)
CC[C@H]1OC(=O)[C@H](C)C(=O)[C@H](C)[C@@H](O[C@@H]2O[C@H](C)C[C@H](N(C)C)[C@H]2O)[C@](C)(OCC#Cc2ccc(-c3ccsc3)s2)C[C@@H](C)C(=O)[C@H](C)[C@H]2NC(=O)O[C@@]21C [Example 27] | > 100 | 0.01 (≈ 0.0125 µM) | 100 (≈ 125 µM) | 100 (≈ 125 µM) | 0.2 (≈ 0.25 µM) | 2 (≈ 2.5 µM) | 0.05 (≈ 0.0624 µM) | ≤ 0.005 | 0.2 (≈ 0.25 µM) | 0.01 (≈ 0.0125 µM) | 100 (≈ 125 µM) | 0.05 (≈ 0.0624 µM) | 0.05 (≈ 0.0624 µM) | 0.05 (≈ 0.0624 µM) | 0.05 (≈ 0.0624 µM) | 0.05 (≈ 0.0624 µM) | 0.05 (≈ 0.0624 µM) | 0.25 (≈ 0.312 µM) | 4 (≈ 4.99 µM) | 0.015 (≈ 0.0187 µM) | MIC [22]: 0.015 µg/mL (≈ 0.0187 µM); MIC [23]: ≤ 0.005 µg/mL; MIC [24]: ≤ 0.005 µg/mL; MIC [25]: 6.2 µg/mL (≈ 7.74 µM); MIC [26]: ≤ 0.005 µg/mL; MIC [27]: 0.1 µg/mL (≈ 0.125 µM)
CC[C@H]1OC(=O)[C@H](C)C(=O)[C@H](C)[C@@H](O[C@@H]2O[C@H](C)C[C@H](N(C)C)[C@H]2O)[C@](C)(OC/C=C/c2ccc(-c3cccc(F)c3)s2)C[C@@H](C)C(=O)[C@H](C)[C@H]2NC(=O)O[C@@]21C [Example 72] | > 100 | 0.05 (≈ 0.0613 µM) | > 100 | > 100 | 1.56 (≈ 1.91 µM) | 8 (≈ 9.82 µM) | 0.05 (≈ 0.0613 µM) | 0.02 (≈ 0.0245 µM) | 1.56 (≈ 1.91 µM) | 0.39 (≈ 0.479 µM) | 25 (≈ 30.7 µM) | 0.2 (≈ 0.245 µM) | 0.2 (≈ 0.245 µM) | 0.2 (≈ 0.245 µM) | 0.2 (≈ 0.245 µM) | 0.2 (≈ 0.245 µM) | 0.2 (≈ 0.245 µM) | 1 (≈ 1.23 µM) | 4 (≈ 4.91 µM) | 0.125 (≈ 0.153 µM) | MIC [11]: 25 µg/mL (≈ 30.7 µM); MIC [22]: 0.125 µg/mL (≈ 0.153 µM); MIC [23]: 0.01 µg/mL (≈ 0.0123 µM); MIC [24]: ≤ 0.005 µg/mL; MIC [25]: 12.5 µg/mL (≈ 15.3 µM); MIC [27]: 0.39 µg/mL (≈ 0.479 µM)
